This passage reports EC50 results from US10851112B2, “Anti-HCMV virus compound” (MEDSHINE DISCOVERY INC., priority 2016, dated 2020).

Molecules are shown by their SMILES.

For the test, the system named is US3-6-EGFP-HCMV-AD169 viruses. As to the kind of experiment: Fluorescence decay assay against human cytomegalovirus. The class given is cell-based, human cytomegalovirus (HCMV). The conditions noted are these: Human betaherpesvirus 5, AD169, MRC5, 240 h. The procedure: Fluorescence Decay Assay Against Human Cytomegalovirus
The antiviral activity of the compound against human cytomegalovirus (HCMV) was evaluated by determining the half maximal effective concentration (EC50) of the compound. The HCMV used in this assay was inserted with enhanced green fluorescent protein (EGFP) by gene recombination, so the viral replication in cells could be reflected by the expression level of GFP. The inhibitory activity of the compound on HCMV GFP expression was evaluated by determining the fluorescence intensity in the wells of different concentrations of the compound using a high content cell analysis platform Acumen eX3.
Fluorescence Decay Assay Against HCMV
MRC5 cells were inoculated into a black 96-well cell culture plate at a density of 20,000 cells per well. The plate was incubated overnight in a 37° C., 5% CO2 incubator. US3-6-EGFP-HCMV-AD169 viruses were added to the cell culture well at a certain MOI (0.003-0.1) and the plate was incubated for 3 hours in a 37° C., 5% CO2 incubator. After adsorption of viruses, the medium containing viruses was aspirated and 200 μL of cell culture medium containing different concentrations of the compound (4-fold dilution, 6 test concentrations) was added. The final concentration of DMSO in the medium was 1%. Virus control wells (with DMSO added, but no compound was added) and inhibition control wells (with a high concentration of control compound added) were set. The cell plate was incubated for 10 days in a 37° C., 5% CO2 incubator and the liquid was renewed on the 4th day and 7th day. After 10 days of culture, the fluorescence intensity was determined using a high content cell analysis platform Acumen eX3 (TTP LabTech). The original data was used for calculating the antiviral activity of the compound.
The inhibition % was imported into GraphPad Prism software for data processing to give a corresponding dose-response curve for the compound and the EC50 of the test compound was obtained.
For orientation: EC50 means the midpoint of the concentration-response curve. Consider `COc1ccc(C(F)(F)F)cc1N1C(N2CCC(F)(c3ccc(F)cc3)CC2)=Nc2c(csc2F)[C@@H]1CC(=O)O` (single isomer, unassigned) [WX-099], for which the EC50 was found to be 24 nM.
`COc1ccc(C(F)(F)F)cc1N1C(N2CCN(c3ccc(F)cc3)CC2)=Nc2c(csc2F)[C@@H]1CC(=O)O` (single isomer, unassigned) [WX-112]: the EC50 came to 1 nM.
In the case of `COc1cc(N2CCN(C3=Nc4ccsc4[C@@H](CC(=O)O)N3c3cc(C(F)(F)F)ccc3OC)C[C@H]2C)ncn1` (single isomer, unassigned) [WX-144] it was 261 nM.
On to `COc1ccnc(N2CCN(C3=Nc4c(csc4F)[C@@H](CC(=O)O)N3c3cc(C(F)(F)F)ccc3OC)C[C@H]2C)c1` (single isomer, unassigned) [WX-146], for which the EC50 is 352 nM.
For `COc1cccc(N2CCN(C3=Nc4ccsc4[C@@H](CC(=O)O)N3c3cc(C(F)(F)F)ccc3OC)C[C@H]2CF)c1` (single isomer, unassigned) [WX-171], the EC50 is greater than 10 nM.
Turning to `COc1cc(N2[C@H](C)CN(C3=Nc4ccsc4[C@@H](CC(=O)O)N3c3cc(C(F)(F)F)ccc3OC)C[C@H]2C)ccn1` (single isomer, unassigned) [WX-197], the EC50 is greater than 10 nM.
For `COc1cc(N2[C@H](C)CN(C3=Nc4ccsc4[C@@H](CC(=O)O)N3c3cc(C(F)(F)F)ccc3OC)C[C@@H]2C)ccn1` (single isomer, unassigned) [WX-160], the EC50 was 44.4 nM.
Consider `COc1cc(N2CCN(C3=Nc4ccsc4[C@@H](CC(=O)O)N3c3cc(C(F)(F)F)ccc3OC)C[C@H]2C)ccc1F` (single isomer, unassigned) [WX-200], for which the EC50 is greater than 10 nM.
Take `COc1cc(N2CCN(C3=Nc4c(csc4F)[C@H](CC(=O)O)N3c3cc(C(F)(F)F)ccc3OC)CC2)ccn1` (single isomer, unassigned) [WX-097]: the EC50 was 1 nM.
For `COc1cc(N2[C@H](C)CN(C3=Nc4cscc4[C@H](CC(=O)O)N3c3cc(C(F)(F)F)ccc3OC)C[C@@H]2C)ccn1` (single isomer, unassigned) [WX-198], the concentration for a half-maximal effect (EC50) amounted to 0.713 nM.
For the molecule `COc1ccc(C(F)(F)F)cc1N1C(N2CCC(F)(c3ccc(F)cc3)CC2)=Nc2ccsc2[C@@H]1CC(=O)O` (single isomer, unassigned) [WX-090], the EC50 came out at 79 nM.
With `COc1ccc(C(F)(F)F)cc1N1C(N2CCN(c3ccc(F)cc3)CC2)=Nc2c(csc2F)[C@H]1CC(=O)O` (single isomer, unassigned) [WX-113], the EC50 is 107 nM.
For `COc1ccnc(N2CCN(C3=Nc4ccsc4[C@@H](CC(=O)O)N3c3cc(C(F)(F)F)ccc3OC)C[C@H]2C)c1` (single isomer, unassigned) [WX-140], the EC50 was determined as 144 nM.
On to `COc1ccc(C(F)(F)F)cc1N1C(N2CCC(F)(c3ccc(F)cc3)CC2)=Nc2c(csc2F)[C@H]1CC(=O)O` (single isomer, unassigned) [WX-100], for which the half-maximal effective concentration (EC50) came to 73 nM.
In the case of `COc1cccc(N2CCN(C3=Nc4cscc4[C@@H](CC(=O)O)N3c3cc(C(F)(F)F)ccc3OC)C[C@H]2C)c1` (single isomer, unassigned) [WX-203] it was greater than 10 nM; in that of `COc1cc(N2CCN(C3=Nc4ccsc4[C@H](CC(=O)O)N3c3cc(C(F)(F)F)ccc3OC)C[C@H]2C)ccc1F` (single isomer, unassigned) [WX-201], 0.53 nM.
Consider `COc1cc(N2CCN(C3=Nc4c(csc4F)[C@@H](CC(=O)O)N3c3cc(C(F)(F)F)ccc3OC)C[C@H]2C)ncn1` (single isomer, unassigned) [WX-150], for which the EC50 was found to be 20 nM.
As to `COc1cncc(N2CCN(C3=Nc4ccsc4[C@@H](CC(=O)O)N3c3cc(C(F)(F)F)ccc3OC)C[C@H]2C)c1` (single isomer, unassigned) [WX-138], the EC50 was greater than 1000 nM.
Consider `COc1ccnc(N2CCN(C3=Nc4c(csc4F)[C@@H](CC(=O)O)N3c3cc(C(F)(F)F)ccc3OC)C[C@H]2C)n1` (single isomer, unassigned) [WX-130], for which the EC50 is greater than 100 nM.
In the case of `COc1cncc(N2CCN(C3=Nc4c(csc4F)[C@@H](CC(=O)O)N3c3cc(C(F)(F)F)ccc3OC)C[C@H]2C)c1` (single isomer, unassigned) [WX-134] it was greater than 1000 nM.
For `COc1cccc(N2CCN(C3=Nc4cc(Cl)sc4[C@H](CC(=O)O)N3c3cc(C(F)(F)F)ccc3OC)CC2)c1` (single isomer, unassigned) [WX-107], the EC50 came out at 4 nM.
On to `COc1cc(N2[C@H](C)CN(C3=Nc4ccsc4[C@H](CC(=O)O)N3c3cc(C(F)(F)F)ccc3OC)C[C@H]2C)ccn1` (single isomer, unassigned) [WX-196], for which the EC50 worked out at 1.91 nM.
With `COc1cccc(N2CCN(C3=Nc4ccsc4[C@@H](CC(=O)O)N3c3cc(C(F)(F)F)ccc3OC)C[C@H]2C)c1` (single isomer, unassigned) [WX-135], the EC50 is 941 nM.
Take `COc1cncc(N2CCN(C3=Nc4ccsc4[C@H](CC(=O)O)N3c3cc(C(F)(F)F)ccc3OC)C[C@H]2C)c1` (single isomer, unassigned) [WX-137]: the EC50 worked out at 31 nM.
Turning to `COc1cc(N2CCN(C3=Nc4ccsc4[C@@H](CC(=O)O)N3c3cc(C(F)(F)F)ccc3OC)C[C@H]2C)ccn1` (single isomer, unassigned) [WX-142], the EC50 turned out to be 56 nM.
Regarding `COc1cc(N2CCN(C3=Nc4cc(C)sc4[C@@H](CC(=O)O)N3c3cc(C(F)(F)F)ccc3OC)C[C@H]2C)ccn1` (single isomer, unassigned) [WX-174], the EC50 was greater than 10 nM.
Turning to `CC[C@@H]1CN(C2=Nc3ccsc3[C@@H](CC(=O)O)N2c2cc(C(F)(F)F)ccc2OC)CCN1c1cccc(OC)c1` (single isomer, unassigned) [WX-169], the EC50 was greater than 538 nM.
Consider `COc1cccc(N2CCN(C3=Nc4c(csc4F)[C@@H](CC(=O)O)N3c3cc(C(F)(F)F)ccc3OC)CC2)c1` (single isomer, unassigned) [WX-075], for which the EC50 was 295 nM.
As for `COc1cc(N2CCN(C3=Nc4c(csc4F)[C@@H](CC(=O)O)N3c3cc(C(F)(F)F)ccc3OC)C[C@H]2C)ccn1` (single isomer, unassigned) [WX-148], the concentration for a half-maximal effect (EC50) stood at 12 nM.
Turning to `CC[C@@H]1CN(C2=Nc3ccsc3[C@H](CC(=O)O)N2c2cc(C(F)(F)F)ccc2OC)CCN1c1cccc(OC)c1` (single isomer, unassigned) [WX-170], the EC50 came to 0.264 nM.
Consider `COc1cccc(N2CCN(C3=Nc4ccsc4[C@H](CC(=O)O)N3c3cc(C(F)(F)F)ccc3OC)C[C@H]2CF)c1` (single isomer, unassigned) [WX-172], for which the EC50 stood at 0.099 nM.
For the molecule `COc1cc(N2CCN(C3=Nc4c(csc4F)[C@@H](CC(=O)O)N3c3cc(C(F)(F)F)ccc3OC)CC2)ccn1` (single isomer, unassigned) [WX-098], the EC50 was determined as 31 nM.
As to `COc1cccc(N2CCN(C3=Nc4cscc4[C@H](CC(=O)O)N3c3cc(C(F)(F)F)ccc3OC)C[C@H]2C)c1` (single isomer, unassigned) [WX-204], the EC50 was 0.172 nM.
For the molecule `COc1cccc(N2CCN(C3=Nc4cc(Cl)sc4[C@@H](CC(=O)O)N3c3cc(C(F)(F)F)ccc3OC)CC2)c1` (single isomer, unassigned) [WX-106], the EC50 is greater than 1000 nM.
In the case of `COc1cccc(N2CCN(C3=Nc4c(csc4F)[C@H](CC(=O)O)N3c3cc(C(F)(F)F)ccc3OC)CC2)c1` (single isomer, unassigned) [WX-076] it was 1 nM.
